Results as given in patent US6525001B1, “Substituted pyrimidine and pyridine herbicides” (Mid-American Commercialization Corporation, priority 1997, dated 2003).

Assays:
Format in all cases: in vivo
Parameters in all cases: key: 0 is no effect; 10 is complete control
[1] = system: smallflower flatsedge (Cyperus difformis); test: Test B flood test
How it was run: (§1)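 Flood test on plants grown to the 2-leaf stage; treated plants kept in greenhouse twelve to sixteen days, then visually rated against controls on a 0 (no effect) to 10 (complete control) scale.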

rice (Oryza sativa) = test: Test B flood test
How it was run: as §1

[2] = system: duck salad (Heteranthera limosa); test: Test B flood test
How it was run: as §1

[3] = system: bamyardgrass (Echinochloa crus-galli); test: Test B flood test
How it was run: as §1

[4] = system: giant foxtail (Setaria faberii); test: Test B pre-/postemergence; conditions: for Plant response rating, Giant foxtail: Postemergence; for Giant foxtail plant response rating: Preemergence
How it was run: (§2)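 Scored visually 0 (none) to 10 (complete control) against untreated plants after twelve to sixteen greenhouse days. Test chemicals, formulated in surfactant-containing non-phytotoxic solvent, applied to soil after planting and, separately, onto 1- to 4-leaf (2–18 cm) plants.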

[5] = system: sugar beet (Beta vulgaris); test: Test B pre-/postemergence
How it was run: as §2

[6] = system: wheat (Triticum aestivum); test: Test B pre-/postemergence
How it was run: as §2

soybean (Glycine max) = test: Test B pre-/postemergence
How it was run: as §2

corn (Zea mays) = test: Test B pre-/postemergence
How it was run: as §2

rape (Brassica napus) = test: Test B pre-/postemergence
How it was run: as §2

[7] = system: blackgrass (Alopecurus myosuroides); test: Test B pre-/postemergence
How it was run: as §2

wild oat (Avena fatua) = test: Test B pre-/postemergence
How it was run: as §2

[8] = system: bedstraw (Galium aparine); test: Test B pre-/postemergence
How it was run: as §2

[9] = system: pigweed (Amaranthus retroflexus); test: Test B pre-/postemergence
How it was run: as §2

[10] = system: velvetleaf (Abutilon theophrasti); test: Test B pre-/postemergence
How it was run: as §2

[11] = system: crabgrass (Digitaria sanguinalis); test: Test B pre-/postemergence
How it was run: as §2

[12] = system: momingglory (Ipomoea hederacea); test: Test B pre-/postemergence
How it was run: as §2

[13] = system: broadleaf signalgrass (Brachiaria decumbens); test: Test B pre-/postemergence
How it was run: as §2

[14] = system: purple nutsedge (Cyperus rotundus); test: Test B pre-/postemergence
How it was run: as §2

[15] = system: cocklebur (Xanthium strumarium); test: Test B pre-/postemergence
How it was run: as §2

[16] = Rate 62 g/ha, Postemergence (flood test)
[17] = Rate 125 g/ha, Postemergence, flood test
[18] = Rate 250 g/ha, Postemergence (flood test species)

Structure (SMILES): COC(=O)C(c1cccc(C(F)(F)F)c1)c1nc(-c2ccc(C(F)(F)F)cc2)ncc1C (racemic) [Compound 18]
- Plant response rating, S. Flatsedge [1, 16]: 9
- Plant response rating, S. Flatsedge [1, 17]: 1
- Plant response rating, S. Flatsedge [1, 18]: 2
- Plant response rating, Rice (rice (Oryza sativa); [16]): 1
- Plant response rating, Rice (rice (Oryza sativa); [17]): 0
- Plant response rating, Rice (rice (Oryza sativa); [18]): 0
- Plant response rating, Ducksalad [2, 16]: 1
- Plant response rating, Ducksalad [2, 17]: 2
- Plant response rating, Ducksalad [2, 18]: 2
- Plant response rating, Barnyardgrass [3, 16]: 2
- Plant response rating, Barnyardgrass [3, 17]: 1
- Plant response rating, Barnyardgrass [3, 18]: 2
- Plant response rating, Giant foxtail ([4]; Rate 62 g/ha): 1
- Giant foxtail plant response rating ([4]; Rate 62 g/ha): 0
- Plant response rating, Giant foxtail ([4]; Rate 125 g/ha): 1
- Giant foxtail plant response rating ([4]; Rate 125 g/ha): 0
- Plant response rating, Giant foxtail ([4]; Rate 250 g/ha): 1
- Plant response rating, Sugarbeets ([5]; Rate 62 g/ha, Postemergence): 7
- Sugarbeets plant response rating ([5]; Rate 62 g/ha, Preemergence): 3
- Plant response rating, Sugarbeets ([5]; Rate 125 g/ha, Postemergence): 7
- Sugarbeets plant response rating ([5]; Rate 125 g/ha, Preemergence): 6
- Plant response rating, Sugarbeets ([5]; Rate 250 g/ha, Postemergence): 9
- Plant response rating, Sugarbeets ([5]; Rate 250 g/ha, Preemergence): 6
- Plant response rating, Wheat ([6]; Rate 62 g/ha, Postemergence): 1
- Wheat plant response rating ([6]; Rate 62 g/ha, Preemergence): 0
- Plant response rating, Wheat ([6]; Rate 125 g/ha, Postemergence): 3
- Wheat plant response rating ([6]; Rate 125 g/ha, Preemergence): 0
- Plant response rating, Wheat ([6]; Rate 250 g/ha, Postemergence): 3
- Plant response rating, Wheat ([6]; Rate 250 g/ha, Preemergence): 0
- Plant response rating, Soybean (soybean (Glycine max); Rate 62 g/ha, Postemergence): 3
- Soybean plant response rating (soybean (Glycine max); Rate 62 g/ha, Preemergence): 0
- Plant response rating, Soybean (soybean (Glycine max); Rate 125 g/ha, Postemergence): 4
- Soybean plant response rating (soybean (Glycine max); Rate 125 g/ha, Preemergence): 0
- Plant response rating, Soybean (soybean (Glycine max); Rate 250 g/ha, Postemergence): 6
- Plant response rating, Soybean (soybean (Glycine max); Rate 250 g/ha, Preemergence): 0
- Plant response rating, Corn (corn (Zea mays); Rate 62 g/ha, Postemergence): 2
- Corn plant response rating (corn (Zea mays); Rate 62 g/ha, Preemergence): 0
- Plant response rating, Corn (corn (Zea mays); Rate 125 g/ha, Postemergence): 2
- Corn plant response rating (corn (Zea mays); Rate 125 g/ha, Preemergence): 0
- Plant response rating, Corn (corn (Zea mays); Rate 250 g/ha, Postemergence): 2
- Plant response rating, Corn (corn (Zea mays); Rate 250 g/ha, Preemergence): 0
- Plant response rating, Rape (rape (Brassica napus); Rate 62 g/ha, Postemergence): 4
- Rape plant response rating (rape (Brassica napus); Rate 62 g/ha, Preemergence): 0
- Plant response rating, Rape (rape (Brassica napus); Rate 125 g/ha, Postemergence): 7
- Rape plant response rating (rape (Brassica napus); Rate 125 g/ha, Preemergence): 0
- Plant response rating, Rape (rape (Brassica napus); Rate 250 g/ha, Postemergence): 9
- Plant response rating, Rape (rape (Brassica napus); Rate 250 g/ha, Preemergence): 0
- Plant response rating, Blackgrass ([7]; Rate 62 g/ha, Postemergence): 2
- Blackgrass plant response rating ([7]; Rate 62 g/ha, Preemergence): 0
- Plant response rating, Blackgrass ([7]; Rate 125 g/ha, Postemergence): 2
- Blackgrass plant response rating ([7]; Rate 125 g/ha, Preemergence): 0
- Plant response rating, Blackgrass ([7]; Rate 250 g/ha, Postemergence): 2
- Plant response rating, Blackgrass ([7]; Rate 250 g/ha, Preemergence): 1
- Plant response rating, Wild oats (wild oat (Avena fatua); Rate 62 g/ha, Postemergence): 3
- Wild oats plant response rating (wild oat (Avena fatua); Rate 62 g/ha, Preemergence): 2
- Plant response rating, Wild oats (wild oat (Avena fatua); Rate 125 g/ha, Postemergence): 5
- Wild oats plant response rating (wild oat (Avena fatua); Rate 125 g/ha, Preemergence): 3
- Plant response rating, Wild oats (wild oat (Avena fatua); Rate 250 g/ha, Postemergence): 5
- Plant response rating, Wild oats (wild oat (Avena fatua); Rate 250 g/ha, Preemergence): 5
- Plant response rating, Bedstraw ([8]; Rate 62 g/ha, Postemergence): 7
- Bedstraw plant response rating ([8]; Rate 62 g/ha, Preemergence): 0
- Plant response rating, Bedstraw ([8]; Rate 125 g/ha, Postemergence): 8
- Bedstraw plant response rating ([8]; Rate 125 g/ha, Preemergence): 2
- Plant response rating, Bedstraw ([8]; Rate 250 g/ha, Postemergence): 9
- Plant response rating, Bedstraw ([8]; Rate 250 g/ha, Preemergence): 5
- Plant response rating, Redroot pigweed ([9]; Rate 62 g/ha, Postemergence): 6
- Redroot pigweed plant response rating ([9]; Rate 62 g/ha, Preemergence): 0
- Plant response rating, Redroot pigweed ([9]; Rate 125 g/ha, Postemergence): 6
- Redroot pigweed plant response rating ([9]; Rate 125 g/ha, Preemergence): 3
- Plant response rating, Redroot pigweed ([9]; Rate 250 g/ha, Postemergence): 9
- Plant response rating, Redroot pigweed ([9]; Rate 250 g/ha, Preemergence): 7
- Plant response rating, Velvetleaf ([10]; Rate 62 g/ha, Postemergence): 5
- Velvetleaf plant response rating ([10]; Rate 62 g/ha, Preemergence): 0
- Plant response rating, Velvetleaf ([10]; Rate 125 g/ha, Postemergence): 6
- Velvetleaf plant response rating ([10]; Rate 125 g/ha, Preemergence): 0
- Plant response rating, Velvetleaf ([10]; Rate 250 g/ha, Postemergence): 7
- Plant response rating, Velvetleaf ([10]; Rate 250 g/ha, Preemergence): 0
- Plant response rating, Crabgrass ([11]; Rate 62 g/ha, Postemergence): 1
- Crabgrass plant response rating ([11]; Rate 62 g/ha, Preemergence): 0
- Plant response rating, Crabgrass ([11]; Rate 125 g/ha, Postemergence): 2
- Crabgrass plant response rating ([11]; Rate 125 g/ha, Preemergence): 0
- Plant response rating, Crabgrass ([11]; Rate 250 g/ha, Postemergence): 3
- Plant response rating, Crabgrass ([11]; Rate 250 g/ha, Preemergence): 6
- Plant response rating, Morningglory ([12]; Rate 62 g/ha, Postemergence): 3
- Morningglory plant response rating ([12]; Rate 62 g/ha, Preemergence): 1
- Plant response rating, Morningglory ([12]; Rate 125 g/ha, Postemergence): 8
- Morningglory plant response rating ([12]; Rate 125 g/ha, Preemergence): 4
- Plant response rating, Morningglory ([12]; Rate 250 g/ha, Postemergence): 8
- Plant response rating, Morningglory ([12]; Rate 250 g/ha, Preemergence): 6
- Plant response rating, B. signalgrass ([13]; Rate 62 g/ha, Postemergence): 2
- B. signalgrass plant response rating ([13]; Rate 62 g/ha, Preemergence): 0
- Plant response rating, B. signalgrass ([13]; Rate 125 g/ha, Postemergence): 2
- B. signalgrass plant response rating ([13]; Rate 125 g/ha, Preemergence): 1
- Plant response rating, B. signalgrass ([13]; Rate 250 g/ha, Postemergence): 3
- Plant response rating, B. signalgrass ([13]; Rate 250 g/ha, Preemergence): 2
- Plant response rating, Nutsedge ([14]; Rate 62 g/ha, Postemergence): 0
- Nutsedge plant response rating ([14]; Rate 62 g/ha, Preemergence): 0
- Plant response rating, Nutsedge ([14]; Rate 125 g/ha, Postemergence): 0
- Nutsedge plant response rating ([14]; Rate 125 g/ha, Preemergence): 0
- Plant response rating, Nutsedge ([14]; Rate 250 g/ha, Postemergence): 0
- Plant response rating, Nutsedge ([14]; Rate 250 g/ha, Preemergence): 0
- Plant response rating, Cocklebur ([15]; Rate 62 g/ha, Postemergence): 6
- Plant response rating, Cocklebur ([15]; Rate 125 g/ha, Postemergence): 7
- Plant response rating, Cocklebur ([15]; Rate 250 g/ha, Postemergence): 8
- Plant response rating, Cocklebur ([15]; Rate 250 g/ha, Preemergence): 0
